PMC10847043, “Engineered probiotic overcomes pathogen defences using signal interference and antibiotic production to treat infection in mice” (Nature Microbiology, 2024)

Tested on: GAS
Test: time-dependent killing (bactericidal) assay
Type: cell-based, Streptococcus pyogenes
Details: 10× MIC; exponential phase GAS
Method: GAS grown to exponential phase was diluted to 10^5 CFUs ml^−1. […] A 100-µl aliquot was collected at each timepoint, cells were centrifuged and pellets were resuspended in 100 µl phosphate-buffered saline (PBS). Cells were serially diluted and plated on blood agar plates. After overnight incubation at 37 °C, CFUs were enumerated and reported as CFUs ml^−1. […] Bactericidal assays were performed in biological triplicate.

Question: Which “killing of GAS, in words” value does the source give for CC1(C)S[C@@H]2[C@H](NC(=O)Cc3ccccc3)C(=O)N2[C@H]1C(=O)O [penicillin G] here?
Answer: The value was “complete killing”.
